# Key:
# [1] = test system: heart muscle; assay: 124I-PUH71 PET-CT cardiac imaging in patients; assay type: in vivo, human
# Experimental: Exemplary Procedure Using ^124I-PUH71 (Compound A) The day before the administration of ^124I-PUH71, potassium iodide was administered to the subject to be imaged to minimize the amount of radioactivity in the thyroid. A dose of KI was administered before ^124I-PUH71 was injected in the vein of the arm of the subject through a catheter. A subject was typically administered one tracer-dose of ^124I-PUH71 5% ethanol and 0.9% NaCl, which is < 1/500th of the NOAEL limit derived from rodents using the cold PUH71. A dose of up to 5.5 mCi of ^124I-PUH71 were administered intravenously. ^124I-PUH71 scans were performed immediately, at 3-4 hours, 20-24 hours, and 48-72 hours after injection of the radiotracer. A 30-45 minute scanning time-period is typical for clinical PET studies. Image was acquired on a PET-CT scanner. A low-dose CT was obtained immediately prior to PET imaging; the 0-hour CT is applied to the three PET datasets rapidly-acquired during the first 30 minutes post-injection. Uptake of the PUH71 by heart muscle in 12 patients are illustrated in FIG. 2. The cardiac uptake is plotted on the y-axis, expressed in terms of the standardized uptake value (SUV), here using the SUV mean parameter. The time after injection is plotted on the x-axis, in minutes. Data shown here is from PET scans obtained 0, 10, 20 and ˜180 minutes after tracer injection. […] In 1 patient, the cardiac uptake was less distinct, but the PET imaging methodology was suboptimal compared to the other studies. […] EKG-synchronization, or ‘EKG-gating’, is standard practice in cardiac imaging, for improving the quality of heart-imaging, and it is expected that results will further improve after EKG gating is added. Without intention to be limited by theory, the bits of variation in the SUV could be due to (1) the lack of EKG-gating and (2) the lack of proper attenuation correction. […] The EKG-gating and attenuation correction techniques are standard practice in cardiac nuclear imaging art.
# [2] = test system: MDA-MB-468 human breast cancer tumors; assay: micro PET of 124I-PUH71 in mice bearing MDA-MB-468 tumors; assay type: in vivo
# Experimental: FIG. 4: [^124I]-PUH71 PET in mice bearing a xenografted tumor. a) Representative PET scan of [^124I]-PUH71 in MDA-MB-468 tumor-bearing mice. Location of the tumor is indicated by a red arrow. […] Representative data is shown.
# We injected mice bearing MDA-MB-468 human breast cancer tumors with trace amounts of ^124I-PUH71, and imaged with the micro PET at 1, 4 and 24 hours post injection. […] The results are illustrated in FIG. 4.
# [3] = stability of 124I-PUH71 in formulation; assay type: physicochemical; settings: formulated in 5% ethanol in saline (0.9%)
# From the text: ^124I-PUH71 was produced in formulation. The radioactive half-life is 4.2 days.
# [4] = test system: Hsp90; assay: saturation binding of 131I-PU-H71 in prostate cancer cell lines; settings: several prostate cancer cell lines
# [5] = patients, single iv tracer injection, PET-CT
smiles,measurement,setting,value
CC(C)NCCCn1c(Sc2cc3c(cc2I)OCO3)nc2c(N)ncnc21 [Compound A],patients whose heart musculature demonstrated visually-distinct uptake,"[1]; PET scans 0, 10, 20 and ~180 minutes after tracer injection, no EKG-gating",11 out of 12
same,clearance from the bloodstream,[1]; human,rapid clearance
same,absorption and retention in the human heart,[1]; human heart,rapid absorption and sustained retention
same,persistence of visually-distinct cardiac uptake,[1]; [5],3 to 4 h
same,time after injection at which uptake in the heart is maximized,[1]; [5],less than 10 minutes
same,time for which cardiac signal intensity is maintained,[1]; [5],≥ 3 h
CC(C)NCCCn1c(Sc2cc3c(cc2[124I])OCO3)nc2c(N)ncnc21 [^124I-PUH71],clearance from the healthy heart,"[2]; MDA-MB-468 tumor-bearing mice, heart and blood pool similar profile",rapid clearance
same,uptake in the heart (PET),"[2]; MDA-MB-468 tumor-bearing mice, no cardiac disease expected",no distinct uptake
same,retention in tumors,"[2]; micro PET at 1, 4 and 24 hours post injection",retained in tumors even at 24 h p.i.
same,route of clearance of excess radioligand,[2]; tumor-bearing mice,cleared via the liver and GI tract
same,stability in formulation,[3],"stable, in formulation, for several days"
CC(C)NCCCn1c(Sc2cc3c(cc2[131I])OCO3)nc2c(N)ncnc21 [^131I-PUH71],selectivity of binding to Hsp90,[4],"bound, selectively"
same,Bmax,[4]; saturable binding,"3 to 7 million sites, per cell"

# Reference: patent publication US10201623B2, “HSP90-targeted cardiac imaging and therapy” (Memorial Sloan-Kettering Cancer Center, priority 2013, dated 2019)
